From US10363229B2, “Methods and compositions for the treatment of cancer” (priority 2009, dated 2019) come the findings set out here.

The test system of data set [1] is melanoma cells. Description: Cell proliferation, BrdU incorporation into DNA. In kind it is cell-based, mouse. The following applies: 2% methyl sulfone. The procedure:
Cells were plated onto sterile 12 mm coverslips in 35 mm tissue culture plates and incubated at 37° C., 5% CO2. After 24 hours, 2% methyl sulfone in medium or medium alone was added the plates and incubated at 37° C., 5% CO2 for 48 and 72 hrs. BrdU (Molecular Probes, Eugene, Oreg., USA; diluted ⅓ in RPMI medium) was added to each plate for 60 minutes at 37° C., 5% CO2. Coverslips were transferred to porcelain holders, washed with PBS, fixed in methanol/acetone (1:1), washed with PBS, and incubated in 5% BSA/PBS for 30 minutes at room temperature. To denature DNA, coverslips were placed in 0.1N HCL/1% Triton X-100 for 10 minutes at room temperature. After washing in PBS, cells were incubated with Alexa Fluor 488 anti-BrdU antibody (Molecular Probes, Eugene, Oreg.; diluted 1/20 in 5% BSA/PBS) for 60 minutes at room temperature. Cells were washed in PBS and incubated with Hoechst (diluted 1/1000 in PBS) in the dark at room temperature. After washing in PBS, cells were dipped in dH2O and drained onto Kim Wipes. SlowFade mounting medium (Molecular Probes, Eugene, Oreg.) was added to a glass slide and coverslips were placed face down onto slides and sealed with clear nail polish. […]

Data set [2] has as its system normal lymphocytes (T-cells) from a healthy volunteer. Description: Apoptosis of normal T-cell lymphocytes by Flow Cytometry. In kind it is cell-based, human. The source says:
Normal T-cell lymphocytes were obtained from a blood sample of a healthy volunteer. Blood samples were obtained with IRB approval and with the volunteer signing an Informed Consent Form. White blood cells were separated from red blood cells using a Ficoll gradient. Flow cytometry with antibodies against CD3 and CD4 was used to identify T-cell lymphocytes (Flow Cytometry Facility, University of Connecticut Health Center, Farmington, Conn.).
(§1) Blood was drawn from healthy volunteers and white blood cells (e.g., lymphocytes, neutrophils) were enriched using Ficoll-Plaque. Cells were incubated in Petri dishes containing MEM with 7% fetal calf serum in a CO2 (5%) incubator at 37° C.; Methyl sulfone was present at concentrations of 0, 3, 6, or 10%. After 20 hours, cells were incubated with antibodies specific to T-lymphocytes (CD3 and CD4 T-cells), B-lymphocytes (B-cells) and neutrophils, and the percent of apoptotic cells was determined by Flow Cytometry. This is a technique that identifies specific cell types (e.g., CD3 T-cells, CD4 T-cells, B-cells, neutrophils) within a mixed population of blood cells, and then determines whether the cells are alive or apoptotic.
(§2) After 20 hours, cells were incubated with fluorescent antibodies to identify T-cells, B-cells and neutrophils, and then processed by Flow Cytometry (FIG. 15).
(In general: Flow cytometry measures light scatter and fluorescence of single cells or particles in a stream.)

The test system of data set [3] is B-cells from healthy volunteers. Description: Apoptosis of normal B-cells by Flow Cytometry. It is filed as cell-based, human. The following applies: 10% methyl sulfone, 20 hours. The procedure: as §1, §2
Data set [4] has as its system neutrophils from healthy volunteers. The experiment in a line: Apoptosis of normal neutrophils by Flow Cytometry. In kind it is cell-based, human. The following applies: 10% methyl sulfone, 20 hours. The procedure:
as §1, §2

Data set [5] relates to SKP2 and p27 in 66 and M3 cells. Description: Immunofluorescence of SKP2 and p27 in cancer cells (Example 2). It is filed as cell-based, mouse. The following applies: 2% methyl sulfone, four weeks. From the text:
SKP2 is a ubiquitin ligase that is active in cell nuclei and is expressed in many types of malignant cells. SKP2 promotes cell cycling and cell proliferation and promotes the degradation of the tumor suppressor protein p27. p27 is a tumor suppressor that is active when located in cell nuclei and in a non-phosphorylated form. p27 promotes cell cycle arrest and senescence.
In normal differentiated cells, p27 (non-phosphorylated active form) is located in the nucleus. […] This was confirmed in the experiments described below. The nuclei were stained with DAPI (blue) and corresponding p27 (red) or SKP2 (red), and then merged the p27/DAPI and SKP2/DAPI photos.
Cells were plated at 1×10^5 cells/ml on 12 mm round coverslips in 35 mm tissue culture plates (final volume of media was 1.5 ml/35 mm plate). At 24 hours after plating, media was replaced with fresh media containing 2% methyl sulfone and cells were incubated in media/2% methyl sulfone for four weeks. Media/2% methyl sulfone was changed every Monday, Wednesday, and Friday Immunofluorescence was performed at four weeks after plating to look for the presence of the following proteins: SKP2 and p27 (Santa Cruz Biotechnology). […]

As for methyl sulfone, the “cells synthesizing DNA (BrdU incorporation)” value in data set [1] (48 hours (control 14%)) is 0.03%. For the same substance, in data set [1] (72 hours (control 21%)), the “cells synthesizing DNA (BrdU incorporation)” value stood at 0%. Also, in data set [2] (10% methyl sulfone, 20 hours), the “viability of normal lymphocytes (T-cells)” value is “remained viable”. Moreover, the “T-cells from the healthy volunteer induced into apoptosis” value in data set [2] (summary in the description, concentration not given) is “less than 10%”. Besides, the “effect on B-cells” value in data set [3] was “unharmed”. Also, the effect on neutrophils entry in data set [4] is reported as “unharmed”. Also, in data set [5], the “SKP2 level and location” value is “low levels of SKP2 in the cytoplasm”; the “p27 expression and location” value is reported as “high expression of p27 in the nucleus”.
